Where two headings read alike, the source gives them in different places.
Columns and labels:
Type in all cases: cell-based
[1] = tested on: 3 sensitive and 7 MDR A. baumannii clinical isolates; test: MIC, Hungarian clinical isolates and controls (384-well)
[2] = tested on: E. coli ATCC 25922; test: IHMA QC MIC; conditions: QC strain E. coli ATCC 25922, test date 2021-11-26
[3] = tested on: H. influenzae ATCC 49766; test: IHMA QC MIC
Text: (§1) Supplement jm2c01905_si_004.xlsx, sheet "QC" | column: MIC [µg/mL]

[4] = tested on: E. faecalis ATCC 29212; test: IHMA QC MIC
Text: as §1

[5] = tested on: H. influenzae ATCC 49247; test: IHMA QC MIC
Text: as §1

[6] = tested on: S. pneumoniae ATCC 49619; test: IHMA QC MIC
Text: as §1

[7] = tested on: N. gonorrhoeae ATCC 49226; test: IHMA QC MIC; conditions: Neisseria gonorrhoeae, ATCC49226
Text: as §1

[8] = tested on: 100 A. baumannii strains (50 MDR, 50 non-MDR); test: MIC broth microdilution at IHMA Europe, panel of 100 strains; conditions: Acinetobacter baumannii, read-out: MIC

Cc1[nH]c(C(=O)Nc2nc3c(N4[C@@H]5CC[C@H]4COC5)cc(C(=O)O)cc3s2)c(Cl)c1Cl [7h, 4-((1R,5S)-3-Oxa-8-azabicyclo[3.2.1]octan-8-yl)-2-(3,4-dichloro-5-methyl-1H-pyrrole-2-carboxamido)benzo[d]thiazole-6-carboxylic Acid]
0.5 mg/L: MIC ([5]; QC strain H. influenzae ATCC 49247, test date 2021-11-11)
≤ 0.03 mg/L: MIC ([4]; Enterococcus faecalis, ATCC29212) | MIC [7]
4 mg/L: MIC [2] | MIC ([8]; A. baumannii IHMA 1769910, Israel 2018, Non-MDR) | MIC ([8]; A. baumannii IHMA 1830924, United Kingdom 2018, Non-MDR) | MIC ([8]; A. baumannii IHMA 1849819, Kuwait 2018, MDR) | MIC ([8]; A. baumannii IHMA 1849829, Kuwait 2018, Non-MDR) | MIC ([8]; A. baumannii IHMA 1857118, Slovenia 2018, Non-MDR) | MIC ([8]; A. baumannii IHMA 1884428, Italy 2018, Non-MDR) | MIC ([8]; A. baumannii IHMA 1900538, Turkey 2018, Non-MDR) | MIC ([8]; A. baumannii IHMA 1957343, Portugal 2019, Non-MDR) | MIC ([8]; A. baumannii IHMA 1977077, Kuwait 2019, Non-MDR) | MIC ([8]; A. baumannii IHMA 1986678, Turkey 2019, Non-MDR) | MIC ([8]; A. baumannii IHMA 2003279, Turkey 2019, MDR) | MIC ([8]; A. baumannii IHMA 2014931, South Africa 2019, Non-MDR) | MIC ([8]; A. baumannii IHMA 2019315, Romania 2019, Non-MDR) | MIC ([8]; A. baumannii IHMA 2034657, Tunisia 2019, Non-MDR)
8 mg/L: MIC ([8]; A. baumannii IHMA 1967860, Spain 2019, Non-MDR)
1 mg/L: MIC ([8]; A. baumannii IHMA 1790916, Romania 2018, Non-MDR) | MIC ([8]; A. baumannii IHMA 1795669, Tunisia 2018, Non-MDR) | MIC ([8]; A. baumannii IHMA 1884990, Germany 2018, Non-MDR) | MIC ([8]; A. baumannii IHMA 1926288, Qatar 2018, MDR) | MIC ([8]; A. baumannii IHMA 1993615, Turkey 2019, MDR) | MIC ([8]; A. baumannii IHMA 2014367, Jordan 2019, Non-MDR) | MIC ([8]; A. baumannii IHMA 2031511, Greece 2019, Non-MDR)
0.06 mg/L: MIC ([5]; Haemophilus influenzae, ATCC49247, QC strain H. influenzae ATCC 49247, test date 2021-11-26)
2 mg/L: MIC ([8]; A. baumannii IHMA 1769393, Lithuania 2018, Non-MDR) | MIC ([8]; A. baumannii IHMA 1769782, Israel 2018, MDR) | MIC ([8]; A. baumannii IHMA 1790317, Czech Republic 2018, Non-MDR) | MIC ([8]; A. baumannii IHMA 1791877, Israel 2018, MDR) | MIC ([8]; A. baumannii IHMA 1792961, Jordan 2018, MDR) | MIC ([8]; A. baumannii IHMA 1814276, Lebanon 2018, MDR) | MIC ([8]; A. baumannii IHMA 1815198, Kuwait 2018, MDR) | MIC ([8]; A. baumannii IHMA 1815856, Israel 2018, MDR) | MIC ([8]; A. baumannii IHMA 1821468, South Africa 2018, Non-MDR) | MIC ([8]; A. baumannii IHMA 1829500, Georgia 2018, Non-MDR) | MIC ([8]; A. baumannii IHMA 1863631, France 2018, Non-MDR) | MIC ([8]; A. baumannii IHMA 1870054, United States 2018, Non-MDR) | MIC ([8]; A. baumannii IHMA 1913773, Kenya 2018, Non-MDR) | MIC ([8]; A. baumannii IHMA 1926285, Qatar 2018, Non-MDR) | MIC ([8]; A. baumannii IHMA 1963732, Turkey 2019, MDR) | MIC ([8]; A. baumannii IHMA 1971673, Latvia 2019, MDR) | MIC ([8]; A. baumannii IHMA 1975075, Israel 2019, Non-MDR) | MIC ([8]; A. baumannii IHMA 1983151, Greece 2019, MDR) | MIC ([8]; A. baumannii IHMA 1984665, Lithuania 2019, MDR) | MIC ([8]; A. baumannii IHMA 1986738, Turkey 2019, MDR) | MIC ([8]; A. baumannii IHMA 1987162, Croatia 2019, MDR) | MIC ([8]; A. baumannii IHMA 1994284, Italy 2019, MDR) | MIC ([8]; A. baumannii IHMA 1995161, Czech Republic 2019, Non-MDR) | MIC ([8]; A. baumannii IHMA 1997936, Morocco 2019, Non-MDR) | MIC ([8]; A. baumannii IHMA 1999178, Belgium 2019, Non-MDR) | MIC ([8]; A. baumannii IHMA 2020360, Croatia 2019, MDR) | MIC ([8]; A. baumannii IHMA 2031524, Greece 2019, MDR) | MIC ([8]; A. baumannii IHMA 2035089, Serbia 2019, MDR) | MIC ([8]; A. baumannii IHMA 2035134, Serbia 2019, Non-MDR) | MIC ([8]; A. baumannii IHMA 2038976, Hungary 2019, MDR)
100%: Cumulative % at MIC [1]
≤0,03 µg/mL: MIC ([4]; QC strain E. faecalis ATCC 29212, test date 2021-11-26)
0.25 mg/L: MIC ([3]; Haemophilus influenzae, ATCC49766) | MIC ([3]; QC strain H. influenzae ATCC 49766, test date 2021-11-26) | MIC ([5]; Haemophilus influenzae, ATCC49247, QC strain H. influenzae ATCC 49247, test date 2021-11-11) | MIC ([6]; QC strain S. pneumoniae ATCC 49619, test date 2021-11-26) | MIC ([6]; Streptococcus pneumoniae, ATCC49619)
